Laboratory results from ChEMBL document CHEMBL4033741, “Dioscin suppresses TGF-β1-induced epithelial-mesenchymal transition and suppresses A549 lung cancer migration and invasion” (2017).
The source made the active and inactive calls. The rule behind the calls is not given here.

What was measured:
A549 [1] = test: Inhibition of TGF-beta1-induced cell invasion in human A549 cells at 2.5 to 3 uM measured after 48 hrs by Matrigel invasion assay; format: functional, cell-based
A549 [2] = test: Antiproliferative activity against human A549 cells assessed as cell survival rate at 0.5 uM incubated for 24 hrs by CCK8 assay; format: functional; conditions: A549, 24 h, read-out: Survival
A549 [3] = test: Antiproliferative activity against human A549 cells assessed as cell survival rate at 1 uM incubated for 24 hrs by CCK8 assay; format: functional; conditions: A549, 24 h, read-out: Survival
A549 [4] = test: Antiproliferative activity against human A549 cells assessed as cell survival rate at 2 uM incubated for 24 hrs by CCK8 assay; format: functional; conditions: A549, 24 h, read-out: Survival
A549 [5] = test: Antiproliferative activity against human A549 cells assessed as cell survival rate at 2.5 uM incubated for 24 hrs by CCK8 assay; format: functional; conditions: A549, 24 h, read-out: Survival
A549 [6] = test: Antiproliferative activity against human A549 cells assessed as cell survival rate at 3 uM incubated for 24 hrs by CCK8 assay; format: functional; conditions: A549, 24 h, read-out: Survival
A549 [7] = test: Antiproliferative activity against human A549 cells assessed as inhibition of cell growth at 4 uM incubated for 24 to 48 hrs by CCK8 assay; format: functional, cell-based
A549 [8] = test: Inhibition of TGF-beta1-induced epithelial-mesenchymal transition in human A549 cells assessed as suppression of cell elongation and spindle like shapes pre-incubated for 2 hrs at 2.5 to 3 uM for 2 hrs followed by TGF-beta1 stimulation for 24 hrs; format: functional, cell-based
A549 [9] = test: Inhibition of TGF-beta1-induced epithelial-mesenchymal transition in human A549 cells assessed as increase in E-cadherin expression pre-incubated for 2 hrs at 2.5 to 3 uM for 2 hrs followed by TGF-beta1 stimulation for 24 hrs by Western blot method; format: functional, cell-based
A549 [10] = test: Inhibition of TGF-beta1-induced epithelial-mesenchymal transition in human A549 cells assessed as decrease in N-cadherin expression pre-incubated for 2 hrs at 2.5 to 3 uM for 2 hrs followed by TGF-beta1 stimulation for 24 hrs by Western blot method; format: functional, cell-based
A549 [11] = test: Inhibition of TGF-beta1-induced epithelial-mesenchymal transition in human A549 cells assessed as increase in E-cadherin gene expression at 2.5 to 3 uM for 2 hrs followed by TGF-beta1 stimulation for 24 hrs by qRT-PCR method; format: functional, cell-based
A549 [12] = test: Inhibition of TGF-beta1-induced epithelial-mesenchymal transition in human A549 cells assessed as reduction in N-cadherin gene expression at 2.5 to 3 uM for 2 hrs followed by TGF-beta1 stimulation for 24 hrs by qRT-PCR method; format: functional, cell-based
A549 [13] = test: Inhibition of TGF-beta1-induced epithelial-mesenchymal transition in human A549 cells assessed as reduction in SNAI2 gene expression at 2.5 to 3 uM for 2 hrs followed by TGF-beta1 stimulation for 24 hrs by qRT-PCR method; format: functional, cell-based
A549 [14] = test: Inhibition of TGF-beta1-induced epithelial-mesenchymal transition in human A549 cells assessed as reduction in vimentin gene expression at 2.5 to 3 uM for 2 hrs followed by TGF-beta1 stimulation for 24 hrs by qRT-PCR method; format: functional, cell-based
A549 [15] = test: Inhibition of TGF-beta1-induced epithelial-mesenchymal transition in human A549 cells assessed as reduction in Smad2 gene expression at 2.5 to 3 uM for 2 hrs followed by TGF-beta1 stimulation for 24 hrs by qRT-PCR method; format: functional, cell-based
A549 [16] = test: Inhibition of TGF-beta1-induced epithelial-mesenchymal transition in human A549 cells assessed as reduction in TGFbeta gene expression at 2.5 to 3 uM for 2 hrs followed by TGF-beta1 stimulation for 24 hrs by qRT-PCR method; format: functional, cell-based
A549 [17] = test: Inhibition of TGF-beta1-induced epithelial-mesenchymal transition in human A549 cells assessed as reduction in TGFbetaR1 gene expression at 2.5 to 3 uM for 2 hrs followed by TGF-beta1 stimulation for 24 hrs by qRT-PCR method; format: functional, cell-based
A549 [18] = test: Inhibition of TGF-beta1-induced epithelial-mesenchymal transition in human A549 cells assessed as reduction in Snail gene expression at 2.5 to 3 uM for 2 hrs followed by TGF-beta1 stimulation for 24 hrs by qRT-PCR method; format: functional, cell-based
A549 [19] = test: Inhibition of TGF-beta1-induced epithelial-mesenchymal transition in human A549 cells assessed as reduction in Snail protein expression at 2.5 to 3 uM for 2 hrs followed by TGF-beta1 stimulation for 24 hrs by Western blot method; format: functional, cell-based
A549 [20] = test: Inhibition of TGF-beta1-induced cell migration in human A549 cells at 2.5 to 3 uM treated along with TGF-beta1 stimulation following cell layer cell layer scratching measured after 24 hrs; format: functional, cell-based
A549 [21] = test: Inhibition of TGF-beta1-induced MMP2 gene expression in human A549 cells at 2.5 to 3 uM for 2 hrs followed by TGF-beta1 stimulation for 24 hrs by qRT-PCR method; format: functional, cell-based
A549 [22] = test: Inhibition of TGF-beta1-induced MMP9 gene expression in human A549 cells at 2.5 to 3 uM for 2 hrs followed by TGF-beta1 stimulation for 24 hrs by qRT-PCR method; format: functional, cell-based
[23] = target: 72 kDa type IV collagenase (Homo sapiens) (UniProt P08253); test: Inhibition of TGF-beta1-induced MMP2 activity in human A549 cells at 2.5 to 3 uM for 2 hrs followed by TGF-beta1 stimulation for 24 hrs by gelatin zymography; format: cell-based
[24] = target: Matrix metalloproteinase-9 (Homo sapiens) (UniProt P14780); test: Inhibition of TGF-beta1-induced MMP9 activity in human A549 cells at 2.5 to 3 uM for 2 hrs followed by TGF-beta1 stimulation for 24 hrs by gelatin zymography; format: cell-based
[25] = target: Mothers against decapentaplegic homolog 2 (Homo sapiens) (UniProt Q15796); test: Inhibition of TGF-beta1-induced Smad2 phosphorylation in human A549 cells at 2.5 to 3 uM for 2 hrs followed by TGF-beta1 stimulation for 24 hrs by Western blot method; format: cell-based
[26] = target: MAP kinase p38 (Homo sapiens) (UniProt O15264+Q15759+Q16539+P53778); test: Inhibition of TGF-beta1-induced p38 phosphorylation in human A549 cells at 2.5 to 3 uM for 2 hrs followed by TGF-beta1 stimulation for 24 hrs by Western blot method; format: cell-based

Mothers against decapentaplegic homolog 2 (Homo sapiens), sequence (Q15796 whole entry): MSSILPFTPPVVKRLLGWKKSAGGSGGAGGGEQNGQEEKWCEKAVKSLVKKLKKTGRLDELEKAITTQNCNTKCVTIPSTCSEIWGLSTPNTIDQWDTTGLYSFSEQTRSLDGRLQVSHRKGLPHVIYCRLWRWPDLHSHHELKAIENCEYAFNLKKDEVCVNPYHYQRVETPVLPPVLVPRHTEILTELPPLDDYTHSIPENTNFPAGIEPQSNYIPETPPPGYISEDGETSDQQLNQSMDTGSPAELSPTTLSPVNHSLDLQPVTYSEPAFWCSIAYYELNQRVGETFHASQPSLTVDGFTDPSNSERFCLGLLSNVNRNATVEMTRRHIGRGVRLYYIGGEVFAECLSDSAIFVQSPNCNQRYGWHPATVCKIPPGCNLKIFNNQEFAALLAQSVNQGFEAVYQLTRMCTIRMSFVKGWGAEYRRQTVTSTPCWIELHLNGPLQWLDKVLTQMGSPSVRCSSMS
72 kDa type IV collagenase (Homo sapiens), sequence (P08253 110-660 limits assumed): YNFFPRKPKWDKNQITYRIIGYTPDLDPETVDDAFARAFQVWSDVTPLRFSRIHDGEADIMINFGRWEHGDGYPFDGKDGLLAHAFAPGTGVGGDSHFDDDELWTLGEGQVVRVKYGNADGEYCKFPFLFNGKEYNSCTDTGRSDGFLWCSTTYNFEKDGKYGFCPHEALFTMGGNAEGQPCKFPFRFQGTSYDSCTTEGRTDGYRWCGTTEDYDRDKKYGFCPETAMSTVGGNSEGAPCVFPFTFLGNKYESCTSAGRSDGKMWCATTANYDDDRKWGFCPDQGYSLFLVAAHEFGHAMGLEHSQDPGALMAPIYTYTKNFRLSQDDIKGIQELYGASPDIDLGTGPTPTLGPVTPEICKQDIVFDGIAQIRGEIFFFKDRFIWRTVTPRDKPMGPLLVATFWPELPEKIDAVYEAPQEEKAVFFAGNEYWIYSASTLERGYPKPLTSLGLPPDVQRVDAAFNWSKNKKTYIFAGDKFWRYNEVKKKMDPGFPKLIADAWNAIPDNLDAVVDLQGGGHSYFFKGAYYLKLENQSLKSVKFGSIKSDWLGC
Matrix metalloproteinase-9 (Homo sapiens), sequence (P14780 whole entry): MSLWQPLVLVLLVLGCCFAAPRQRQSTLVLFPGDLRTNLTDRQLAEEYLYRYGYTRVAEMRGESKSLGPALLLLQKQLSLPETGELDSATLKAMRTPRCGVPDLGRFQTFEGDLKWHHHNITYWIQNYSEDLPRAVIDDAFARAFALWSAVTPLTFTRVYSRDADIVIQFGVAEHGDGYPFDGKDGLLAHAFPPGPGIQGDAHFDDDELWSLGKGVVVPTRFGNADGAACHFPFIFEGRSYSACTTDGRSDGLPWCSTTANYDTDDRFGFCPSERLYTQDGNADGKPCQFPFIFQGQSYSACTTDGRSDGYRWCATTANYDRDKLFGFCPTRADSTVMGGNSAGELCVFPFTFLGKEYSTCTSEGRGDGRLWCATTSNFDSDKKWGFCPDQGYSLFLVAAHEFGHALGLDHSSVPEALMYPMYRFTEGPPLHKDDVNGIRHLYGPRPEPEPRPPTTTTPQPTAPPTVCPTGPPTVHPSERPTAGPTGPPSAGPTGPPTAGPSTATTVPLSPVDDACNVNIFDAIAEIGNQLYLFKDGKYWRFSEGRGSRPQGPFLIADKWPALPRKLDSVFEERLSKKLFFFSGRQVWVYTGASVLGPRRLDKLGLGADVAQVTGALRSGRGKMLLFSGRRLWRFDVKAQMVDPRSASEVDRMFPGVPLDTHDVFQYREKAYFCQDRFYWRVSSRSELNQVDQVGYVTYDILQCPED

For `C[C@@H]1CC[C@@]2(OC1)O[C@H]1C[C@H]3[C@@H]4CC=C5C[C@@H](O[C@@H]6O[C@H](CO)[C@@H](O[C@@H]7O[C@@H](C)[C@H](O)[C@@H](O)[C@H]7O)[C@H](O)[C@H]6O[C@@H]6O[C@@H](C)[C@H](O)[C@@H](O)[C@H]6O)CC[C@]5(C)[C@H]4CC[C@]3(C)[C@H]1[C@@H]2C` [DIOSCIN], the inhibition (A549 [1]) was “Active”, the viability at 0.5 µM (A549 [2]) was greater than 80% and the viability at 1 µM (A549 [3]) was greater than 80%. It also gave a viability at 2 µM (A549 [4]) greater than 80%, a viability at 2.5 µM (A549 [5]) greater than 80% and a viability at 3 µM (A549 [6]) greater than 80%. For the same compound, the “growth inhibition (GI)” value (A549 [7]) was “Active”, the inhibition (A549 [8]) was “Active” and the inhibition (A549 [9]) was “Active”. For the same compound, the inhibition (A549 [10]) was “Active”, the inhibition (A549 [11]) was “Dose-dependent effect” and the inhibition (A549 [12]) was “Dose-dependent effect”. For the same compound, the inhibition (A549 [13]) was “Dose-dependent effect”, the inhibition (A549 [14]) was “Dose-dependent effect” and the inhibition (A549 [15]) was “Dose-dependent effect”. The inhibition (A549 [16]) was “Dose-dependent effect”, the inhibition (A549 [17]) was “Dose-dependent effect” and the inhibition (A549 [18]) was “Dose-dependent effect”. The inhibition (A549 [19]) was “Dose-dependent effect”, the inhibition (A549 [20]) was “Dose-dependent effect” and the inhibition (A549 [21]) was “Dose-dependent effect”. For the same compound, the inhibition (A549 [22]) was “Dose-dependent effect”, the inhibition [23] was “Active” and the inhibition [24] was “Active”. The inhibition [25] was “Dose-dependent effect” and the inhibition [26] was “Active”.
